Results taken from US20240018161A1, “MODULATORS OF CYSTIC FIBROSIS TRANSMEMBRANE CONDUCTANCE REGULATOR” (VERTEX PHARMACEUTICALS INCORPORATED, priority 2020, published 2024).
Read-outs that look alike come from different tables or passages of the source.

Biological target: CFTR-mediated chloride transport in human intestinal epithelial enteroid cells (Homo sapiens, UniProt P13569)
Test: Membrane potential dye, Enteroid Assay A
Type: cell-based
Settings: for EC50: read-out: Ent. A EC50
Procedure, shortened: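 Membrane potential dye (20 μM methyl oxonol, with 30 μM CaCCinh-A01 and 30 μM Chicago Sky Blue) loaded 25 min at room temperature into ROCK-inhibitor-seeded human enteroid cells. Chloride-free stimulation buffer triggered transport, followed by 15 min fluorescence. % Activity relative to 3 μM/3 μM/300 nM triple-combination control.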

[1] = enteroid cells incubated with test compound 18-24 hours, acute 10 μM forskolin and 300 nM N-[2,4-bis(1,1-dimethylethyl)-5-hydroxyphenyl]-1,4-dihydro-4-oxoquinoline-3-carboxamide
[2] = percentage of chloride transport of triple combination control (3 μM N-[(6-amino-2-pyridyl)sulfonyl]-6-(3-fluoro-5-isobutoxy-phenyl)-2-[(4S)-2,2,4-trimethylpyrrolidin-1-yl]pyridine-3-carboxamide based)

CFTR-mediated chloride transport in human intestinal epithelial enteroid cells, sequence (P13569 with tags, fused parts or gaps DEL508-508): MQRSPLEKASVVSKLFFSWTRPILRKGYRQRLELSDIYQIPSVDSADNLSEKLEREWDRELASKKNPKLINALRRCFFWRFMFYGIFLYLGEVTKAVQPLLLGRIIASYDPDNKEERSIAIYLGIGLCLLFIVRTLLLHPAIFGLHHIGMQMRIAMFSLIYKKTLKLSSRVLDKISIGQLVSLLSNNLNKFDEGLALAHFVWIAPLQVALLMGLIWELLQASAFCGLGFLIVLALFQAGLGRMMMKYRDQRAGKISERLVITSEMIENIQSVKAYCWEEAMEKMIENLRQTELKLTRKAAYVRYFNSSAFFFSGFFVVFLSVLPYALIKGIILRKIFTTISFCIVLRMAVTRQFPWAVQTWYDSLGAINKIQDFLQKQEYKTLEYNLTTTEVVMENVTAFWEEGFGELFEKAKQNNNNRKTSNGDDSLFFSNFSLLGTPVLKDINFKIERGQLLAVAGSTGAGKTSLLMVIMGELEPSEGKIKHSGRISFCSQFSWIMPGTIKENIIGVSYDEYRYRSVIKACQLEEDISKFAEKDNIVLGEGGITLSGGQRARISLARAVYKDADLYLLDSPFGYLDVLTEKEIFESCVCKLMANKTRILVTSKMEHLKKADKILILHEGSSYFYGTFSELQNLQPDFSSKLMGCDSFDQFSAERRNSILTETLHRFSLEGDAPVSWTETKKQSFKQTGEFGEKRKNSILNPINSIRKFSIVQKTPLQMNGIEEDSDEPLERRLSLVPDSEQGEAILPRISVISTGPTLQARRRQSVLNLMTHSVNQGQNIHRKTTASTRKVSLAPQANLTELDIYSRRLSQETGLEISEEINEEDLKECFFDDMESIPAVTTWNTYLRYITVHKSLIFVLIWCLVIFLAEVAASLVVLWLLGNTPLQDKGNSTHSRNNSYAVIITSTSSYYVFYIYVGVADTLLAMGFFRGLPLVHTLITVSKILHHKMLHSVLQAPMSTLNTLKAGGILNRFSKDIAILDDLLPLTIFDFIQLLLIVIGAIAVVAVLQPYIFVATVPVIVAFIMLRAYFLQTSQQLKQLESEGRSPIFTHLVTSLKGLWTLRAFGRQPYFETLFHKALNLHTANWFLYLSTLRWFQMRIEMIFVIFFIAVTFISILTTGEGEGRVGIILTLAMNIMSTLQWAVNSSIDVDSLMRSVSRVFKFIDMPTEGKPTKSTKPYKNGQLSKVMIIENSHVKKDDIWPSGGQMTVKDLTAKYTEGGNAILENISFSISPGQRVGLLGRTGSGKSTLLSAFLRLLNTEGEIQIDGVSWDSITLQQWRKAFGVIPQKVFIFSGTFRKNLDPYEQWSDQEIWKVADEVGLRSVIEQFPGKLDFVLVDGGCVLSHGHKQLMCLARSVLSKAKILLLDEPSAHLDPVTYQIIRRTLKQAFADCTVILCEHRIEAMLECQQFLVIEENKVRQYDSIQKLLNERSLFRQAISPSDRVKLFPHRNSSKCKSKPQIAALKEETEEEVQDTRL

| Compound | EC50 [1] [nM] | Ent. A Max Activity (%) [2] | Ent. A Max Activity (%) (Enteroid Assay A) | EC50 (Enteroid Assay A) [nM] |
| --- | --- | --- | --- | --- |
| Cc1cccc(C)c1-c1cc2nc(n1)NS(=O)(=O)c1cccc(c1)C(=O)N1CCN(Cc3ccccc3)C[C@@H]1CO2 [Compound 164, (8R)-6-Benzyl-13-(2,6-dimethylphenyl)-10-oxa-17λ^6-thia-3,6,14,16,23-pentaazatetracyclo[16.3.1.111,15.03,8]tricosa-1(21),11,13,15(23),18(22),19-hexaene-2,17,17-trione] | < 1000 | +++ (+++ is >60%) |  |  |
| Cc1cccc(C)c1-c1cc2nc(n1)NS(=O)(=O)c1cccc(c1)C(=O)N1CCN(C(C)C)C[C@@H]1CO2 [Compound 165, (8R)-13-(2,6-Dimethylphenyl)-6-(propan-2-yl)-10-oxa-17λ^6-thia-3,6,14,16,23-pentaazatetracyclo[16.3.1.111,15.03,8]tricosa-1(21),11,13,15(23),18(22),19-hexaene-2,17,17-trione] | 3000 to 30000 | +++ (+++ is >60%) |  |  |
| Cc1cccc(C)c1-c1cc2nc(n1)NS(=O)(=O)c1cccc(c1)C(=O)N1CCN(C(=O)NC3CCCCCC3)C[C@@H]1CO2 [Compound 166, (8R)—N-Cycloheptyl-13-(2,6-dimethylphenyl)-2,17,17-trioxo-10-oxa-17λ^6-thia-3,6,14,16,23-pentaazatetracyclo[16.3.1.111,15.03,8]tricosa-1(21),11,13,15(23),18(22),19-hexaene-6-carboxamide] | 3000 to 30000 | +++ (+++ is >60%) |  |  |
| Cc1cccc(C)c1-c1cc2nc(n1)NS(=O)(=O)c1cccc(c1)C(=O)N1CCN(C(=O)N(C(C)C)C(C)C)C[C@@H]1CO2 [Compound 167, (8R)-13-(2,6-Dimethylphenyl)-2,17,17-trioxo-N,N-bis(propan-2-yl)-10-oxa-17λ^6-thia-3,6,14,16,23-pentaazatetracyclo[16.3.1.111,15.03,8]tricosa-1(21),11,13,15(23),18(22),19-hexaene-6-carboxamide] | 1000 to 3000 | +++ (+++ is >60%) |  |  |
| Cc1cccc(C)c1-c1cc2nc(n1)NS(=O)(=O)c1cccc(c1)C(=O)N1CCN(C(=O)C3CCCCC3)C[C@@H]1CO2 [Compound 168, (8R)-6-Cyclohexanecarbonyl-13-(2,6-dimethylphenyl)-10-oxa-17λ^6-thia-3,6,14,16,23-pentaazatetracyclo[16.3.1.111,15.03,8]tricosa-1(21),11,13,15(23),18(22),19-hexaene-2,17,17-trione] | < 1000 | +++ (+++ is >60%) |  |  |
| Cc1cccc(C)c1-c1cc2nc(n1)NS(=O)(=O)c1cccc(c1)C(=O)N1CCN(Cc3ccccc3)CC1CO2 (stereo not shown) [Compound 169, 6-Benzyl-13-(2,6-dimethylphenyl)-10-oxa-17λ^6-thia-3,6,14,16,23-pentaazatetracyclo[16.3.1.111,15.03,8]tricosa-1(21),11,13,15(23),18(22),19-hexaene-2,17,17-trione] | < 1000 | +++ (+++ is >60%) |  |  |
| Cc1cccc(C)c1-c1cc2nc(n1)NS(=O)(=O)c1cccc(c1)C(=O)N1CCNCC1C(C)O2 (stereo not shown) [Compound 172, 13-(2,6-dimethylphenyl)-9-methyl-10-oxa-17λ^6-thia-3,6,14,16,23-pentaazatetracyclo[16.3.1.111,15.03,8]tricosa-1(22),11,13,15(23),18,20-hexaene-2,17,17-trione] |  | + (+ is <300%) |  |  |
| Cc1cccc(C)c1-c1cc2nc(n1)NS(=O)(=O)c1cccc(c1)C(=O)N1CCN(C(C)C)CC1C(Cc1ccccc1)O2 (stereo not shown) [Compound 174, 9-benzyl-13-(2,6-dimethylphenyl)-6-(propan-2-yl)-10-oxa-17λ^6-thia-3,6,14,16,23-pentaazatetracyclo[16.3.1.111,15.03,8]tricosa-1(22),11,13,15(23),18,20-hexaene-2,17,17-trione] |  |  | +++ (+++ is >600%) | < 1000 |
| Cc1cccc(C)c1-c1cc2nc(n1)NS(=O)(=O)c1cccc(c1)C(=O)N1CCNCC1C(Cc1ccccc1)O2 (stereo not shown) [Compound 176, 9-benzyl-13-(2,6-dimethylphenyl)-10-oxa-17λ^6-thia-3,6,14,16,23-pentaazatetracyclo[16.3.1.111,15.03,8]tricosa-1(22),11,13,15(23),18,20-hexaene-2,17,17-trione] |  |  | + (+ is <30%) | 3000 to 30000 |
| Cc1cccc(C)c1-c1cc2nc(n1)NS(=O)(=O)c1cccc(c1)C(=O)N1CCN(CCC(C)(C)C)C(CO2)C1 (stereo not shown) [Compound 177, 18-(3,3-Dimethylbutyl)-12-(2,6-dimethylphenyl)-15-oxa-8λ^6-thia-1,9,11,18,22-pentaazatetracyclo[15.3.1.13,7.110,14]tricosa-3(23),4,6,10(22),11,13-hexaene-2,8,8-trione] | < 1000 | ++ (++ is 30-60%) |  |  |
| Cc1cccc(C)c1-c1cc2nc(n1)NS(=O)(=O)c1cccc(c1)C(=O)N1CCN(Cc3ccccc3)C(CO2)C1 (stereo not shown) [Compound 178, 18-Benzyl-12-(2,6-dimethylphenyl)-15-oxa-8λ^6-thia-1,9,11,18,22-pentaazatetracyclo[15.3.1.13,7.110,14]tricosa-3,5,7(23),10(22),11,13-hexaene-2,8,8-trione] | < 1000 | ++ (++ is 30-60%) |  |  |
| Cc1cccc(C)c1-c1cc2nc(n1)NS(=O)(=O)c1cccc(c1)C(=O)N1Cc3cc(C(C)(C)C)ccc3C(C1)O2 (stereo not shown) [Compound 182, 20-tert-Butyl-12-(2,6-dimethylphenyl)-15-oxa-8λ^6-thia-1,9,11,25-tetraazapentacyclo[14.7.1.13,7.110,14.017,22]hexacosa-3,5,7(26),10,12,14(25),17,19,21-nonaene-2,8,8-trione] |  |  | + (+ is <30%) |  |
| Cc1cccc(C)c1-c1cc2nc(n1)NS(=O)(=O)c1cccc(c1)C(=O)N1Cc3cc(C(C)(C)C)ccc3[C@H](O2)[C@H]1CC(C)C [Compound 184, (16S,24R)-20-tert-Butyl-12-(2,6-dimethylphenyl)-24-(2-methylpropyl)-15-oxa-8λ^6-thia-1,9,11,25-tetraazapentacyclo[14.7.1.13,7.110,14.017,22]hexacosa-3,5,7(26),10,12,14(25),17,19,21-nonaene-2,8,8-trione] |  |  | +++ (+++ is >600%) | < 1000 |
| Cc1cccc(C)c1-c1cc2nc(n1)NS(=O)(=O)c1cccc(c1)C(=O)N1Cc3cc(C(C)(C)C)ccc3[C@@H](O2)[C@H]1CC(C)C [Compound 185, (16R,24R)-20-tert-butyl-12-(2,6-dimethylphenyl)-24-(2-methylpropyl)-15-oxa-8λ^6-thia-1,9,11,25-tetraazapentacyclo[14.7.1.13,7.110,14.017,22]hexacosa-3,5,7(26),10,12,14(25),17,19,21-nonaene-2,8,8-trione] |  |  | +++ (+++ is >600%) | < 1000 |
| Cc1cccc(C)c1-c1cc2nc(n1)NS(=O)(=O)c1cccc(c1)C(=O)N1CCCN(Cc3ccccc3)CC(C1)O2 (stereo not shown) [Compound 205, 18-Benzyl-12-(2,6-dimethylphenyl)-15-oxa-8λ^6-thia-1,9,11,18,23-pentaazatetracyclo[14.5.1.13,7.110,14]tetracosa-3,5,7(24),10,12,14(23)-hexaene-2,8,8-trione] |  |  | ++ (++ is 30-60%) | < 1000 |
